Results as given in patent USRE48461E1, “Modulation of androgen receptor expression” (Ionis Pharmaceuticals, Inc., priority 2012, dated 2021).
Oligonucleotides are written 5' to 3', each unit as a sugar letter and its base; * is a phosphorothioate linkage, no mark a phosphodiester; rarer units and linkages stand in square brackets, end groups in braces. Plain capitals give the bases only. e = 2'-O-(2-methoxyethyl) (MOE); k = constrained ethyl (cEt); [5mC] = 5-methylcytosine; d = 2'-deoxy (DNA)

Key:
AR mRNA [1] = assay: AR mRNA in LnCaP cells by free uptake (hAR_LTS00943); assay type: cell-based, human; conditions: 24 hrs
Description: Cells were plated at a concentration of 4,000 cells/well in 96-well plates. ISIS oligonucleotides, specified in Table 68, were added individually at 0.02 μM, 0.10 μM, 0.50 μM, 2.50 μM, or 10.00 μM. After an incubation period of 24 hrs, mRNA levels were measured using primer probe set hAR_LTS00943.

TMPRSS2 mRNA = TMPRSS2 mRNA levels in LMR20 cells; assay type: cell-based, human; conditions: LMR20 cells; for TMPRSS2 mRNA levels (% baseline value) after treatment with DHT: DHT 10 nM 72 hrs; for TMPRSS2 mRNA levels (% baseline value) after treatment with R1881: R1881 10 nM 72 hrs; for TMPRSS2 mRNA levels (% baseline value) of cells without AR agonist treatment: no AR agonist
Description: (§1) LMR20 cells were plated at 1,500 cells per well in phenol red-free medium with CSS.

AR mRNA [2] = assay: Antisense inhibition of human AR in HuVEC cells, single concentration (electroporation, qRT-PCR RTS3559); assay type: cell-based; conditions: 250 nM ASO, ~24 h, Table 7
In short: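 AR mRNA levels were measured with human primer-probe set RTS3559 and adjusted for total RNA (RIBOGREEN). Cells were HuVEC, with each antisense oligonucleotide delivered by electroporation at one concentration.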

[3] = tested on: prostate-specific antigen (PSA) mRNA; assay: PSA mRNA levels in LMR20 cells; assay type: cell-based, human; conditions: LMR20 cells; for PSA mRNA levels (% baseline value) after treatment with DHT: DHT 10 nM 72 hrs; for PSA mRNA levels (% baseline value) after treatment with R1881: R1881 10 nM 72 hrs; for PSA mRNA levels (% baseline value) of cells without AR agonist treatment: no AR agonist
Description: LMR20 cells were plated at 1,500 cells per well in phenol red-free medium with CSS. […] Results are presented in Tables 43-45 as mRNA levels expressed as a percentage of the baseline values. mRNA levels may be lowered or increased after treatment.

AR mRNA [4] = assay: AR mRNA in liver, heart, skeletal muscle, kidney, prostate of cynomolgus monkeys; assay type: in vivo; conditions: cynomolgus monkey, 40 mg/kg subcutaneously
Description: Cynomolgus monkeys were treated with ISIS antisense oligonucleotides selected from studies described above. Antisense oligonucleotide efficacy and tolerability were evaluated. The human antisense oligonucleotides tested are cross-reactive with the rhesus genomic sequence (GENBANK Accession No. NW_001218131.1 truncated from nucleotides 134001 to 308000 and designated herein as SEQ ID NO: 189). The target start site and target region of each oligonucleotide to SEQ ID NO: 189, as well as the details of their chemistry and sequence, is presented in Table 133.
RNA was extracted from liver, heart, skeletal muscle, kidney, and prostate tissues for real-time PCR analysis of AR using primer probe set RTS3559. The results were normalized to RIBOGREEN®. Results are presented as percent inhibition of AR mRNA, relative to PBS control.

AR mRNA [5] = assay: Dose-dependent antisense inhibition of human AR in HuVEC cells (electroporation, qRT-PCR RTS3559, IC50); assay type: cell-based; conditions: HuVEC, ~16 h, Table 8
In short: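 HuVEC cells dosed with antisense oligonucleotides by electroporation and treated approximately 16 hours. AR mRNA quantified by real-time qPCR with primer probe set RTS3559 and normalised to total RNA by RIBOGREEN; IC50 from dose-response.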

AR mRNA [6] = assay: AR mRNA levels in LMR20 cells (with/without DHT or R1881); assay type: cell-based, human; conditions: LMR20 cells; for AR mRNA levels (% baseline value) after treatment with DHT: DHT 10 nM 72 hrs; for AR mRNA levels (% baseline value) after treatment with R1881: R1881 10 nM 72 hrs; for AR mRNA levels (% baseline value) of cells without AR agonist treatment: no AR agonist
Description: as §1

[7] = cynomolgus monkey, in vivo, sc, 40 mg/kg
Description: The monkeys were 2-4 years old and weighed between 2 and 4 kg. Thirteen groups of four randomly assigned male cynomolgus monkeys each were injected subcutaneously with ISIS oligonucleotide or PBS. PBS solution or ISIS oligonucleotides, at a dose of 40 mg/kg, were administered with a loading regimen consisting of four doses on the first week of the study (days 1, 3, 5, and 7), followed by a maintenance regimen consisting of once weekly administration starting on Day 14 (weeks 2 to 6). Subcutaneous injections were performed in clock-wise rotations at 4 sites on the back; one site per dose. The injection sites were delineated by tattoo, while sedated using ketamine, and were separated by a minimum of 3 cm.
To evaluate any inflammatory effect of ISIS oligonucleotides in cynomolgus monkeys, the monkeys were fasted overnight. Approximately, 1.5 mL of blood samples were collected from all the study groups on day 44. Blood was collected in tubes without anticoagulant for serum separation. The tubes were kept at room temperature for a minimum of 90 min and then centrifuged at 3,000 rpm for 10 min. C-reactive protein (CRP), which is synthesized in the liver and which serves as a marker of inflammation, was measured on day 43 using a Toshiba 120FR NEO chemistry analyzer (Toshiba Co., Japan). Complement C3 was also measured similarly, and the data is presented as a percentage of baseline values.

[8] = cynomolgus monkey, in vivo, sc, 40 mg/kg; remark: listed apart in the source
Description: (§2) Prior to the study, the monkeys were kept in quarantine for a 30-day period, during which the animals were observed daily for general health. The monkeys were 2-4 years old and weighed between 2 and 4 kg. Thirteen groups of four randomly assigned male cynomolgus monkeys each were injected subcutaneously with ISIS oligonucleotide or PBS. PBS solution or ISIS oligonucleotides, at a dose of 40 mg/kg, were administered with a loading regimen consisting of four doses on the first week of the study (days 1, 3, 5, and 7), followed by a maintenance regimen consisting of once weekly administration starting on Day 14 (weeks 2 to 6). Subcutaneous injections were performed in clock-wise rotations at 4 sites on the back; one site per dose. The injection sites were delineated by tattoo, while sedated using ketamine, and were separated by a minimum of 3 cm.
To evaluate the effect of ISIS oligonucleotides on hepatic function, the monkeys were fasted overnight. Approximately, 1.5 mL of blood samples were collected on day 44 from all the study groups. Blood was collected in tubes without anticoagulant for serum separation. The tubes were kept at room temperature for a minimum of 90 min and then centrifuged at 3,000 rpm for 10 min. Levels of various liver function markers were measured using a Toshiba 120FR NEO chemistry analyzer (Toshiba Co., Japan).

[9] = cynomolgus monkey, in vivo, sc, 40 mg/kg; remark: listed apart in the source
Description: as §2
To evaluate the effect of ISIS oligonucleotides on kidney function, the monkeys were fasted overnight. Approximately, 1.5 mL of blood samples were collected from all the study groups on day 44. Blood was collected in tubes without anticoagulant for serum separation. The tubes were kept at room temperature for a minimum of 90 min and then centrifuged at 3,000 rpm for 10 min. Levels of BUN and creatinine were measured using a Toshiba 120FR NEO chemistry analyzer (Toshiba Co., Japan).

[10] = cynomolgus monkey, in vivo, sc, 40 mg/kg; remark: listed apart in the source
[11] = cynomolgus monkey, in vivo, sc, 40 mg/kg; remark: listed apart in the source

560131 (antisense kT*kT*kG*dA*dT*dT*dT*dA*dA*dT*dG*dG*kT*kT*kG*e[5mC]) [compound 560131]
Percent inhibition of AR mRNA (AR mRNA [1]; 0.02 μM): 0% | Percent inhibition of AR mRNA (AR mRNA [1]; 0.1 μM): 0% | Percent inhibition of AR mRNA (AR mRNA [1]; 0.5 μM): 13% | Percent inhibition of AR mRNA (AR mRNA [1]; 10 μM): 57% | TMPRSS2 mRNA levels (% baseline value) after treatment with DHT (TMPRSS2 mRNA; ASO 0.04 μM): 112 % baseline value | TMPRSS2 mRNA levels (% baseline value) after treatment with DHT (TMPRSS2 mRNA; ASO 0.20 μM): 108 % baseline value | TMPRSS2 mRNA levels (% baseline value) after treatment with DHT (TMPRSS2 mRNA; ASO 1.0 μM): 93 % baseline value | TMPRSS2 mRNA levels (% baseline value) after treatment with DHT (TMPRSS2 mRNA; ASO 5.0 μM): 71 % baseline value | TMPRSS2 mRNA levels (% baseline value) after treatment with R1881 (TMPRSS2 mRNA; ASO 0.04 μM): 132 % baseline value | TMPRSS2 mRNA levels (% baseline value) after treatment with R1881 (TMPRSS2 mRNA; ASO 0.20 μM): 117 % baseline value | TMPRSS2 mRNA levels (% baseline value) after treatment with R1881 (TMPRSS2 mRNA; ASO 1.0 μM): 88 % baseline value | TMPRSS2 mRNA levels (% baseline value) after treatment with R1881 (TMPRSS2 mRNA; ASO 5.0 μM): 76 % baseline value | TMPRSS2 mRNA levels (% baseline value) of cells without AR agonist treatment (TMPRSS2 mRNA; ASO 0.04 μM): 92 % baseline value | TMPRSS2 mRNA levels (% baseline value) of cells without AR agonist treatment (TMPRSS2 mRNA; ASO 0.20 μM): 67 % baseline value | TMPRSS2 mRNA levels (% baseline value) of cells without AR agonist treatment (TMPRSS2 mRNA; ASO 1.0 μM): 52 % baseline value | TMPRSS2 mRNA levels (% baseline value) of cells without AR agonist treatment (TMPRSS2 mRNA; ASO 5.0 μM): 45 % baseline value | % inhibition (AR mRNA [2]): 74% | PSA mRNA levels (% baseline value) after treatment with DHT ([3]; ASO 0.04 μM): 74 % baseline value | PSA mRNA levels (% baseline value) after treatment with DHT ([3]; ASO 0.20 μM): 61 % baseline value | PSA mRNA levels (% baseline value) after treatment with DHT ([3]; ASO 1.0 μM): 35 % baseline value | PSA mRNA levels (% baseline value) after treatment with DHT ([3]; ASO 5.0 μM): 35 % baseline value | PSA mRNA levels (% baseline value) after treatment with R1881 ([3]; ASO 0.04 μM): 92 % baseline value | PSA mRNA levels (% baseline value) after treatment with R1881 ([3]; ASO 0.20 μM): 77 % baseline value | PSA mRNA levels (% baseline value) after treatment with R1881 ([3]; ASO 1.0 μM): 44 % baseline value | PSA mRNA levels (% baseline value) after treatment with R1881 ([3]; ASO 5.0 μM): 35 % baseline value | PSA mRNA levels (% baseline value) of cells without AR agonist treatment ([3]; ASO 0.04 μM): 113 % baseline value | PSA mRNA levels (% baseline value) of cells without AR agonist treatment ([3]; ASO 0.20 μM): 83 % baseline value | PSA mRNA levels (% baseline value) of cells without AR agonist treatment ([3]; ASO 1.0 μM): 75 % baseline value | PSA mRNA levels (% baseline value) of cells without AR agonist treatment ([3]; ASO 5.0 μM): 71 % baseline value | Percent Inhibition of AR mRNA relative to the PBS control, Heart (AR mRNA [4]; weeks 1 to 6, Heart): 32% | Percent Inhibition of AR mRNA relative to the PBS control, Kidney (AR mRNA [4]; weeks 1 to 6, Kidney): 19% | Percent Inhibition of AR mRNA relative to the PBS control, Liver (AR mRNA [4]; weeks 1 to 6, Liver): 65% | Percent Inhibition of AR mRNA relative to the PBS control, Prostate (AR mRNA [4]; weeks 1 to 6, Prostate): 27% | Percent Inhibition of AR mRNA relative to the PBS control, Skeletal Muscle (AR mRNA [4]; weeks 1 to 6, Skeletal Muscle): 30% | percent inhibition of AR (AR mRNA [5]; 31.25 nM): 16% | percent inhibition of AR (AR mRNA [5]; 62.5 nM): 48% | percent inhibition of AR (AR mRNA [5]; 125.0 nM): 65% | percent inhibition of AR (AR mRNA [5]; 500.0 nM): 89% | percent inhibition of AR (AR mRNA [5]; 1000.0 nM): 97% | IC50 (AR mRNA [5]): 90 nM | AR mRNA levels (% baseline value) after treatment with DHT (AR mRNA [6]; ASO 0.04 μM): 89 % baseline value | AR mRNA levels (% baseline value) after treatment with DHT (AR mRNA [6]; ASO 0.20 μM): 55 % baseline value | AR mRNA levels (% baseline value) after treatment with DHT (AR mRNA [6]; ASO 1.0 μM): 25 % baseline value | AR mRNA levels (% baseline value) after treatment with DHT (AR mRNA [6]; ASO 5.0 μM): 20 % baseline value | AR mRNA levels (% baseline value) after treatment with R1881 (AR mRNA [6]; ASO 0.04 μM): 87 % baseline value | AR mRNA levels (% baseline value) after treatment with R1881 (AR mRNA [6]; ASO 0.20 μM): 65 % baseline value | AR mRNA levels (% baseline value) after treatment with R1881 (AR mRNA [6]; ASO 1.0 μM): 30 % baseline value | AR mRNA levels (% baseline value) after treatment with R1881 (AR mRNA [6]; ASO 5.0 μM): 26 % baseline value | AR mRNA levels (% baseline value) of cells without AR agonist treatment (AR mRNA [6]; ASO 0.04 μM): 107 % baseline value | AR mRNA levels (% baseline value) of cells without AR agonist treatment (AR mRNA [6]; ASO 0.20 μM): 74 % baseline value | AR mRNA levels (% baseline value) of cells without AR agonist treatment (AR mRNA [6]; ASO 1.0 μM): 29 % baseline value | AR mRNA levels (% baseline value) of cells without AR agonist treatment (AR mRNA [6]; ASO 5.0 μM): 17 % baseline value

TGATTTAATGGTTGCA [ISIS 569213] (cEt/MOE gapmer chemistry, further chemistry not given here)
C3 (% of baseline) [7]: 60 % of baseline | CRP [7]: 2.8 mg/dL | ALT [8]: 47 IU/L | AST [8]: 80 IU/L | Albumin [8]: 3.7 g/dL | Plasma BUN [9]: 29.4 mg/dL | Plasma Creatinine [9]: 0.91 mg/dL | HCT [10]: 42% | Hemoglobin [10]: 12.5 g/dL | Platelets [10]: 426000 µL | RBC [10]: 5.6e+06 µL | WBC [10]: 12900 µL | Body Wt [11]: 2.4 kg | Heart weight [11]: 8.3 g | Kidney weight [11]: 16 g | Liver weight [11]: 69 g | Mesenteric lymph nodes weight [11]: 2.4 g | Spleen weight [11]: 5.3 g
